Reference: patent US20200024278A1, “COMPOSITION COMPRISING ANTIBIOTIC COMPOUND AND AN HETEROCYCLIC COMPOUND AND THEIR USE IN PREVENTING OR TREATING BACTERIAL INFECTIONS” (MUTABILIS, priority 2016, published 2020)

How the values were obtained:
Assay in all cases: MIC, broth microdilution (CLSI), substance alone or ATB combined with compound at 4 or 8 μg/mL
[1] = test system: ECO 190317; format: cell-based, E. coli; settings: ECO 190317; for MIC ATB combined with Example: Example @4 μg/ml
Summary of the method: (§1)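 Growth inhibition endpoint, read visually after 16-20 h at 35° C in ambient air. Cation-adjusted Mueller-Hinton broth, inoculum 5·10^5 CFU/mL, CLSI M7-A7 protocol.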

[2] = test system: ECO UFR39; format: cell-based, E. coli; settings: ECO UFR39; for MIC ATB combined with Example: Example @4 μg/ml; for MIC ATB combined with Example compound: compound @4 μg/ml
Summary of the method: as §1

[3] = test system: KPN 6299; format: cell-based, K. pneumoniae; settings: for MIC ATB combined with Example: Example @4 μg/ml
Summary of the method: as §1

[4] = test system: KPN BAA-1898; format: cell-based, K. pneumoniae; settings: KPN BAA-1898; for MIC ATB combined with Example: Example @4 μg/ml
Summary of the method: as §1

[5] = test system: KPN UFR42; format: cell-based, K. pneumoniae; settings: KPN UFR42; for MIC ATB combined with Example: Example @4 μg/ml; for MIC ATB combined with Example compound: compound @4 μg/ml
Summary of the method: as §1

[6] = test system: ECL P99; format: cell-based, E. cloacae; settings: ECL P99; for MIC ATB combined with Example: Example @4 μg/ml
Summary of the method: as §1

[7] = test system: PAE 105250; format: cell-based, P. aeruginosa; settings: PAE 105250; for MIC ATB combined with Example: Example @4 μg/ml; for MIC ATB combined with Example compound: compound @4 μg/ml
Summary of the method: as §1

[8] = test system: PAE UFR48; format: cell-based, P. aeruginosa; settings: PAE UFR48; for MIC ATB combined with Example: Example @4 μg/ml; for MIC ATB combined with Example compound: compound @4 μg/ml
Summary of the method: as §1

[9] = test system: PAE UFR90; format: cell-based, P. aeruginosa; settings: PAE UFR90; for MIC ATB combined with Example: Example @4 μg/ml; for MIC ATB combined with Example compound: compound @4 μg/ml
Summary of the method: as §1

[10] = test system: SAU 29213; format: cell-based, S. aureus; settings: for MIC ATB combined with Example / MIC ATB combined with Example compound: SAU 29213; for MIC ATB combined with Example: Example @4 μg/ml; for MIC ATB combined with Example compound: compound @4 μg/ml
Summary of the method: as §1

[11] = test system: SPN 49619; format: cell-based, S. pneumoniae; settings: SPN 49619; for MIC ATB combined with Example: Example @4 μg/ml; for MIC ATB combined with Example compound: compound @4 μg/ml
Summary of the method: as §1

- MIC ATB combined with Example ([1]; ATB ATM): <0.031 µg/mL
- MIC ATB combined with Example ([1]; ATB FEP): <0.031 µg/mL
- MIC ATB combined with Example ([1]; ATB FOS): <0.125 µg/mL
- MIC ATB combined with Example ([1]; ATB MEM): <0.031 µg/mL
- MIC ATB combined with Example ([1]; ATB PIP): <0.031 µg/mL
- MIC ATB combined with Example compound ([1]; MIC of CIP, compound @4 μg/ml): <0.031 µg/mL
- MIC ([1]; substance alone): 0.5 µg/mL
- MIC ATB combined with Example ([2]; ATB ATM): <0.031 µg/mL
- MIC ATB combined with Example ([2]; ATB FEP): <0.031 µg/mL
- MIC ATB combined with Example ([2]; ATB FOS): <0.125 µg/mL
- MIC ATB combined with Example ([2]; ATB MEM): <0.031 µg/mL
- MIC ATB combined with Example ([2]; ATB PIP): <0.031 µg/mL
- MIC ATB combined with Example compound ([2]; MIC of CIP): <0.031 µg/mL
- MIC ATB combined with Example compound ([2]; MIC of CPO): <0.031 µg/mL
- MIC ([2]; substance alone): 0.5 µg/mL
- MIC ATB combined with Example ([3]; ATB ATM): <0.031 µg/mL
- MIC ATB combined with Example ([3]; ATB FEP): <0.031 µg/mL
- MIC ATB combined with Example ([3]; ATB FOS): <0.125 µg/mL
- MIC ATB combined with Example ([3]; ATB MEM): <0.031 µg/mL
- MIC ATB combined with Example ([3]; ATB PIP): <0.031 µg/mL
- MIC ATB combined with Example compound ([3]; MIC of CIP, compound @4 μg/ml): <0.031 µg/mL
- MIC ATB combined with Example ([4]; ATB ATM): <0.031 µg/mL
- MIC ATB combined with Example ([4]; ATB FEP): <0.031 µg/mL
- MIC ATB combined with Example ([4]; ATB FOS): <0.125 µg/mL
- MIC ATB combined with Example ([4]; ATB MEM): <0.031 µg/mL
- MIC ATB combined with Example ([4]; ATB PIP): <0.031 µg/mL
- MIC ATB combined with Example compound ([4]; MIC of CIP, compound @4 μg/ml): <0.031 µg/mL
- MIC ([4]; substance alone): 1 µg/mL
- MIC ATB combined with Example ([5]; ATB ATM): <0.031 µg/mL
- MIC ATB combined with Example ([5]; ATB FEP): <0.031 µg/mL
- MIC ATB combined with Example ([5]; ATB FOS): <0.125 µg/mL
- MIC ATB combined with Example ([5]; ATB MEM): <0.031 µg/mL
- MIC ATB combined with Example ([5]; ATB PIP): <0.031 µg/mL
- MIC ATB combined with Example compound ([5]; MIC of CIP): <0.031 µg/mL
- MIC ATB combined with Example compound ([5]; MIC of CPO): <0.031 µg/mL
- MIC ([5]; substance alone): 2 µg/mL
- MIC ATB combined with Example ([6]; ATB ATM): <0.031 µg/mL
- MIC ATB combined with Example ([6]; ATB FEP): <0.031 µg/mL
- MIC ATB combined with Example ([6]; ATB FOS): <0.125 µg/mL
- MIC ATB combined with Example ([6]; ATB MEM): <0.031 µg/mL
- MIC ATB combined with Example ([6]; ATB PIP): <0.031 µg/mL
- MIC ATB combined with Example compound ([6]; MIC of CIP, compound @4 μg/ml): <=0.031 μg/mL
- MIC ([6]; substance alone): 1 µg/mL
- MIC ATB combined with Example ([7]; ATB ATM): 8 µg/mL
- MIC ATB combined with Example ([7]; ATB FEP): 4 µg/mL
- MIC ATB combined with Example ([7]; ATB FOS): >128 µg/mL
- MIC ATB combined with Example ([7]; ATB MEM): 2 µg/mL
- MIC ATB combined with Example ([7]; ATB PIP): >32 µg/mL
- MIC ATB combined with Example compound ([7]; MIC of CIP): 0.125 µg/mL
- MIC ATB combined with Example compound ([7]; MIC of CPO): 8 µg/mL
- MIC ([7]; substance alone): 32 µg/mL
- MIC ATB combined with Example ([8]; ATB ATM): 8 µg/mL
- MIC ATB combined with Example ([8]; ATB FEP): 16 µg/mL
- MIC ATB combined with Example ([8]; ATB FOS): 32 µg/mL
- MIC ATB combined with Example ([8]; ATB MEM): 0.25 µg/mL
- MIC ATB combined with Example ([8]; ATB PIP): 16 µg/mL
- MIC ATB combined with Example compound ([8]; MIC of CIP): 4 µg/mL
- MIC ATB combined with Example compound ([8]; MIC of CPO): >32 µg/mL
- MIC ([8]; substance alone): 32 µg/mL
- MIC ATB combined with Example ([9]; ATB ATM): 16 µg/mL
- MIC ATB combined with Example ([9]; ATB FEP): 4 µg/mL
- MIC ATB combined with Example ([9]; ATB FOS): 8 µg/mL
- MIC ATB combined with Example ([9]; ATB MEM): 1 µg/mL
- MIC ATB combined with Example ([9]; ATB PIP): >32 µg/mL
- MIC ATB combined with Example compound ([9]; MIC of CIP): 1 µg/mL
- MIC ATB combined with Example compound ([9]; MIC of CPO): 8 µg/mL
- MIC ([9]; substance alone): >32 µg/mL
- MIC ATB combined with Example ([10]; ATB ATM): <0.031 µg/mL
- MIC ATB combined with Example ([10]; ATB FEP): <0.031 µg/mL
- MIC ATB combined with Example ([10]; ATB FOS): <=0.125 μg/mL
- MIC ATB combined with Example ([10]; ATB MEM): <=0.031 μg/mL
- MIC ATB combined with Example ([10]; ATB PIP): <0.031 µg/mL
- MIC ATB combined with Example compound ([10]; MIC of CIP): <31 ng/mL
- MIC ATB combined with Example compound ([10]; MIC of CLI): <1 ng/mL
- MIC ATB combined with Example compound ([10]; MIC of CPO): <31 ng/mL
- MIC ATB combined with Example compound ([10]; MIC of DAP): <2 ng/mL
- MIC ATB combined with Example compound ([10]; MIC of ERY): <2 ng/mL
- MIC ATB combined with Example compound ([10]; MIC of LZD): <7.8 ng/mL
- MIC ATB combined with Example compound ([10]; MIC of RIF): <0.12 ng/mL
- MIC ATB combined with Example compound ([10]; MIC of SYN): <2 ng/mL
- MIC ATB combined with Example compound ([10]; MIC of VAN): <3.9 ng/mL
- MIC ([10]; substance alone, SAU 29213 (MSSA 29213)): 4 µg/mL
- MIC ATB combined with Example ([11]; ATB ATM): >32 µg/mL
- MIC ATB combined with Example ([11]; ATB FEP): <=0.031 μg/mL
- MIC ATB combined with Example ([11]; ATB FOS): 8 µg/mL
- MIC ATB combined with Example ([11]; ATB MEM): <=0.031 μg/mL
- MIC ATB combined with Example ([11]; ATB PIP): 0.5 µg/mL
- MIC ATB combined with Example compound ([11]; MIC of CIP): <=0.031 μg/mL
- MIC ATB combined with Example compound ([11]; MIC of CLI): <1 ng/mL
- MIC ATB combined with Example compound ([11]; MIC of CPO): <=0.031 μg/mL
- MIC ATB combined with Example compound ([11]; MIC of DAP): 31 ng/mL
- MIC ATB combined with Example compound ([11]; MIC of ERY): <2 ng/mL
- MIC ATB combined with Example compound ([11]; MIC of LZD): 125 ng/mL
- MIC ATB combined with Example compound ([11]; MIC of RIF): 0.49 ng/mL
- MIC ATB combined with Example compound ([11]; MIC of SYN): 500 ng/mL
- MIC ATB combined with Example compound ([11]; MIC of VAN): 7.8 ng/mL
- MIC ([11]; substance alone): 4 µg/mL
SMILES: O=C1N2CC(n3ccnn3)=C[C@H](C2)N1OS(=O)(=O)[O-].[Na+] [Example 16, sodium [(5R)-7-oxo-3-(triazol-1-yl)-1,6-diazabicyclo[3.2.1]oct-3-en-6-yl] sulfate]
